Experimental findings from article PMC4490465 (2015) are described below.

For assay [1], the system named is 3 bp mismatch (DNA, hairpin) CAGTCATGAGCATGGATGCGGAAAAACCGCATCCATGCTCATGACTG
Briefly: SPR, steady state, 1:1 fit. The settings on record: HBS-EP + 0.1% DMSO, pH 7.4, 25 °C. (In general: In SPR one partner is held on a chip, and binding of the other changes the refractive index at the surface.)

For assay [2], the system named is Cognate DNA sequence (DNA, hairpin) CGCATATGGTATGTGCCGCGGAAAAACCGCGGCACATACCATATGCG
Briefly: SPR, steady state, 1:1 fit. The settings on record: HBS-EP + 0.1% DMSO, pH 7.4, 25 °C.

Take `CC(=O)Nc1cn(C)c(C(=O)Nc2cn(C)c(C(=O)Nc3cc(C(=O)Nc4cc(C(=O)NCCCC(=O)Nc5cc(C(=O)Nc6cc(C(=O)Nc7cc(C(=O)Nc8cc(C(=O)NCCC(=O)NCCCN(C)C)n(C)c8)n(C)c7)n(C)c6)n(C)c5)n(C)c4)n(C)c3)n2)n1`: the figures for the Kd in assay [1] and in assay [2] were 314 ± 160 nM and 1.6 ± 0.1 nM, respectively.

In the case of `CN(C)CCCNC(=O)CCNC(=O)c1cc(NC(=O)c2cc(NC(=O)c3cc(NC(=O)c4cc(NC(=O)CCCNC(=O)c5cc(NC(=O)c6cc(NC(=O)c7nc(NC(=O)c8nc(NC(=O)CCOCCOCCOCCNC(=O)[C@@H](N)CSSC(C)(C)C)cn8C)cn7C)cn6C)cn5C)cn4C)cn3C)cn2C)cn1C`, in assay [2] (apparent), the Kd is given as 9.3 ± 1.6 nM.
